In PubChem BioAssay (NCI):
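How tested: cells in 96-well plates exposed to compound for 48 hours at five concentrations. TGI is the concentration that stops growth completely.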

Legend:
Assay in all cases: growth of human tumour cells (NCI), 48 h
IGROV1 ovarian = test system: IGROV1 ovarian
SK-OV-3 ovarian = test system: SK-OV-3 ovarian
786-0 renal = test system: 786-0 renal
LOX IMVI melanoma = test system: LOX IMVI melanoma
RPMI-8226 leukemia = test system: RPMI-8226 leukemia
PC-3 prostate = test system: PC-3 prostate
SK-MEL-5 melanoma = test system: SK-MEL-5 melanoma
OVCAR-5 ovarian = test system: OVCAR-5 ovarian
MALME-3M melanoma = test system: MALME-3M melanoma
T-47D breast = test system: T-47D breast
OVCAR-3 ovarian = test system: OVCAR-3 ovarian
CCRF-CEM leukemia = test system: CCRF-CEM leukemia
SF-295 CNS = test system: SF-295 CNS
NCI-H522 lung = test system: NCI-H522 lung
SR leukemia = test system: SR leukemia
EKVX NSCLC = test system: EKVX NSCLC
A549 NSCLC = test system: A549 NSCLC
SN12C renal = test system: SN12C renal
M14 melanoma = test system: M14 melanoma
MOLT-4 leukemia = test system: MOLT-4 leukemia
MDA-N = test system: MDA-N
MCF7 breast = test system: MCF7 breast
OVCAR-4 ovarian = test system: OVCAR-4 ovarian
CAKI-1 renal = test system: CAKI-1 renal
NCI-H226 lung = test system: NCI-H226 lung
SK-MEL-28 melanoma = test system: SK-MEL-28 melanoma
HT29 colon = test system: HT29 colon
KM12 colon = test system: KM12 colon
TK-10 renal = test system: TK-10 renal
NCI/ADR-RES ovarian = test system: NCI/ADR-RES ovarian
SF-539 CNS = test system: SF-539 CNS
NCI-H460 lung = test system: NCI-H460 lung
SNB-75 CNS = test system: SNB-75 CNS
MDA-MB-231 breast = test system: MDA-MB-231 breast
SK-MEL-2 melanoma = test system: SK-MEL-2 melanoma
HL-60(TB) leukemia = test system: HL-60(TB) leukemia
ACHN renal = test system: ACHN renal
HCC-2998 colon = test system: HCC-2998 colon
K-562 leukemia = test system: K-562 leukemia
NCI-H23 lung = test system: NCI-H23 lung
MDA-MB-435 = test system: MDA-MB-435
UACC-62 melanoma = test system: UACC-62 melanoma
SF-268 CNS = test system: SF-268 CNS
DU-145 prostate = test system: DU-145 prostate
HOP-62 NSCLC = test system: HOP-62 NSCLC
SNB-19 CNS = test system: SNB-19 CNS
RXF 393 renal = test system: RXF 393 renal
HCT-15 colon = test system: HCT-15 colon
UO-31 renal = test system: UO-31 renal
HCT-116 colon = test system: HCT-116 colon
HS 578T breast = test system: HS 578T breast
UACC-257 melanoma = test system: UACC-257 melanoma
SW-620 colon = test system: SW-620 colon
OVCAR-8 ovarian = test system: OVCAR-8 ovarian
A498 renal = test system: A498 renal
COLO 205 colon = test system: COLO 205 colon
U251 CNS = test system: U251 CNS

N=C(N)n1[nH]c2c(c1=O)CCCC2
TGI (IGROV1 ovarian): > 100 µM
TGI (SK-OV-3 ovarian): > 100 µM
TGI (786-0 renal): > 100 µM
TGI (LOX IMVI melanoma): > 100 µM
TGI (RPMI-8226 leukemia): > 100 µM
TGI (PC-3 prostate): > 100 µM
TGI (SK-MEL-5 melanoma): > 100 µM
TGI (OVCAR-5 ovarian): > 100 µM
TGI (MALME-3M melanoma): > 100 µM
TGI (T-47D breast): > 100 µM
TGI (OVCAR-3 ovarian): > 100 µM
TGI (CCRF-CEM leukemia): > 100 µM
TGI (SF-295 CNS): > 100 µM
TGI (NCI-H522 lung): > 100 µM
TGI (SR leukemia): > 100 µM
TGI (EKVX NSCLC): > 100 µM
TGI (A549 NSCLC): > 100 µM
TGI (SN12C renal): > 100 µM
TGI (M14 melanoma): > 100 µM
TGI (MOLT-4 leukemia): > 100 µM
TGI (MDA-N): > 100 µM
TGI (MCF7 breast): > 100 µM
TGI (OVCAR-4 ovarian): > 100 µM
TGI (CAKI-1 renal): > 100 µM
TGI (NCI-H226 lung): > 100 µM
TGI (SK-MEL-28 melanoma): > 100 µM
TGI (HT29 colon): > 100 µM
TGI (KM12 colon): > 100 µM
TGI (TK-10 renal): > 100 µM
TGI (NCI/ADR-RES ovarian): > 100 µM
TGI (SF-539 CNS): > 100 µM
TGI (NCI-H460 lung): > 100 µM
TGI (SNB-75 CNS): 99.7 µM
TGI (MDA-MB-231 breast): > 100 µM
TGI (SK-MEL-2 melanoma): > 100 µM
TGI (HL-60(TB) leukemia): > 100 µM
TGI (ACHN renal): > 100 µM
TGI (HCC-2998 colon): > 100 µM
TGI (K-562 leukemia): > 100 µM
TGI (NCI-H23 lung): > 100 µM
TGI (MDA-MB-435): > 100 µM
TGI (UACC-62 melanoma): > 100 µM
TGI (SF-268 CNS): > 100 µM
TGI (DU-145 prostate): > 100 µM
TGI (HOP-62 NSCLC): > 100 µM
TGI (SNB-19 CNS): > 100 µM
TGI (RXF 393 renal): > 100 µM
TGI (HCT-15 colon): > 100 µM
TGI (UO-31 renal): > 100 µM
TGI (HCT-116 colon): > 100 µM
TGI (HS 578T breast): > 100 µM
TGI (UACC-257 melanoma): > 100 µM
TGI (SW-620 colon): > 100 µM
TGI (OVCAR-8 ovarian): > 100 µM
TGI (A498 renal): > 100 µM
TGI (COLO 205 colon): > 100 µM
TGI (U251 CNS): > 100 µM

O=C(/C=C(\Nc1ccccc1O)c1ccccc1)C(=O)NC12CC3CC(CC(C3)C1)C2
TGI (IGROV1 ovarian): > 10 µM
TGI (SK-OV-3 ovarian): > 10 µM
TGI (786-0 renal): > 10 µM
TGI (LOX IMVI melanoma): > 10 µM
TGI (RPMI-8226 leukemia): > 10 µM
TGI (PC-3 prostate): > 10 µM
TGI (SK-MEL-5 melanoma): > 10 µM
TGI (OVCAR-5 ovarian): > 10 µM
TGI (MALME-3M melanoma): > 10 µM
TGI (T-47D breast): > 10 µM
TGI (OVCAR-3 ovarian): > 10 µM
TGI (CCRF-CEM leukemia): > 10 µM
TGI (SF-295 CNS): > 10 µM
TGI (NCI-H522 lung): > 10 µM
TGI (SR leukemia): > 10 µM
TGI (EKVX NSCLC): > 10 µM
TGI (SN12C renal): > 10 µM
TGI (M14 melanoma): > 10 µM
TGI (MOLT-4 leukemia): > 10 µM
TGI (MDA-N): > 10 µM
TGI (MCF7 breast): > 10 µM
TGI (OVCAR-4 ovarian): > 10 µM
TGI (CAKI-1 renal): > 10 µM
TGI (NCI-H226 lung): > 10 µM
TGI (SK-MEL-28 melanoma): > 10 µM
TGI (HT29 colon): 5.87 µM
TGI (KM12 colon): > 10 µM
TGI (TK-10 renal): > 10 µM
TGI (NCI/ADR-RES ovarian): > 10 µM
TGI (SF-539 CNS): > 10 µM
TGI (NCI-H460 lung): > 10 µM
TGI (SNB-75 CNS): > 10 µM
TGI (MDA-MB-231 breast): > 10 µM
TGI (SK-MEL-2 melanoma): > 10 µM
TGI (HL-60(TB) leukemia): > 10 µM
TGI (ACHN renal): > 10 µM
TGI (HCC-2998 colon): > 10 µM
TGI (K-562 leukemia): > 10 µM
TGI (NCI-H23 lung): > 10 µM
TGI (MDA-MB-435): > 10 µM
TGI (SF-268 CNS): > 10 µM
TGI (DU-145 prostate): > 10 µM
TGI (HOP-62 NSCLC): > 10 µM
TGI (RXF 393 renal): > 10 µM
TGI (HCT-15 colon): > 10 µM
TGI (UO-31 renal): > 10 µM
TGI (HS 578T breast): > 10 µM
TGI (UACC-257 melanoma): > 10 µM
TGI (SW-620 colon): > 10 µM
TGI (OVCAR-8 ovarian): > 10 µM
TGI (A498 renal): > 10 µM
TGI (COLO 205 colon): > 10 µM
TGI (U251 CNS): > 10 µM
